Measurements published in ChEMBL document CHEMBL1821677, “Identification of novel allosteric modulators for the G-protein coupled US28 receptor of human cytomegalovirus” (Bioorg Med Chem Lett, 2011).
Calls of active or inactive are those of the source. No cut-off for these calls is given here.

How the values were obtained:
[1] = system: G-protein coupled receptor homolog US28 (Human cytomegalovirus); test: Efficacy at HCMV TB40/E US28 expressed in human HEK cells assessed as Elk-1 activation preincubated for 1 hrs measured after 20 to 24 hrs by PathDetect trans Elk-1 reporter gene assay relative to control; conditions: Human betaherpesvirus 5, HEK293
[2] = Inverse agonist activity at HCMV TB40/E US28 expressed in human HEK cells assessed as Elk-1 activation preincubated for 1 hrs measured after 20 to 24 hrs by luciferase reporter gene assay; assay type: functional, cell-based; conditions: Human betaherpesvirus 5, TB40/E, HEK293
[3] = biological target: D(2) dopamine receptor (Homo sapiens) (UniProt P14416); test: Binding affinity to dopamine D2L receptor
[4] = biological target: D(2) dopamine receptor (Homo sapiens) (UniProt P14416); test: Binding affinity to human dopamine D2L receptor expressed in HEK cells assessed as Elk-1 activation preincubated for 1 hrs measured after 20 to 24 hrs by PathDetect trans Elk-1 reporter gene assay; assay type: cell-based; conditions: HEK293
[5] = Cytotoxicity against mock transfected human HEK cells at 10 uM after 20 to 24 hrs by Cell titer cell proliferation assay; assay type: cell-based; conditions: hek293, 10 µM

Sequence of D(2) dopamine receptor (Homo sapiens) (P14416 whole entry): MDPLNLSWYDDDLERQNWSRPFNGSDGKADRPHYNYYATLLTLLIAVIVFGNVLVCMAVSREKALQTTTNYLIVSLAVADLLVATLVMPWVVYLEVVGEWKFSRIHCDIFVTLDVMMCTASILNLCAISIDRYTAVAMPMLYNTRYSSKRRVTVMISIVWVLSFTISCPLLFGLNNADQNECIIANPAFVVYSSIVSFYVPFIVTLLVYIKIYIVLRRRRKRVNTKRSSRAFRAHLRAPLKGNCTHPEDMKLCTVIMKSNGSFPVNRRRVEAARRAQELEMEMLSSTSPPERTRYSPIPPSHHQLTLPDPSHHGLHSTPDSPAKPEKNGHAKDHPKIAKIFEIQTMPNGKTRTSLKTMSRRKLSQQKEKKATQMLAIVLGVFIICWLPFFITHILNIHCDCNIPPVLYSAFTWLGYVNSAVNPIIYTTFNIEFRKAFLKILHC

Structure (SMILES) | Efficacy [1] [%] | EC50 ([2]; read-out: EC50) [nM] | EC50 ([2]; read-out: pEC50 (converted)) [nM] | Activity [3] [µM] | Activity [4] | Activity [5]
N#CC(CCCN1CCC(O)(c2ccc(Cl)cc2)CC1)(c1ccccc1)c1ccccc1 [BERLEX COMPOUND] | -22 | 4500 | 4570 | 2 | – | –
CCCC[C@H]1Cc2ccccc2[C@@H](c2ccccc2)N1 (relative stereo) | 22 | 280 | 275 | – | Active | –
CC1(COC(=O)Cc2ccccc2)Cc2ccccc2CN1C(=O)Cc1ccccc1 (configuration not stated) | -37 | 3400 | 3470 | – | – | Non-toxic
CC1(CCOC(=O)c2ccccc2)Cc2ccccc2CN1C(=O)c1ccccc1 (configuration not stated) | -70 | 13500 | 13500 | – | – | Toxic
CCC[C@H]1Cc2c(Cl)cccc2[C@@H](c2ccccc2)N1 (relative stereo) | 27 | 1500 | 1550 | – | – | –
CC1(COC(=O)c2ccccc2)Cc2ccccc2CN1C(=O)c1ccccc1 (configuration not stated) | -62 | 8500 | 8510 | – | – | Toxic
CC1(CO)Cc2ccccc2C(=O)N1c1ccccc1 (configuration not stated) | 41 | 4400 | 4370 | – | – | –
CCCC[C@@H]1Cc2ccc(F)cc2[C@@H](c2ccccc2)N1 (relative stereo) | 15 | 2000 | 2000 | – | – | –
CSc1ccc2c(c1)C(N1CCN(C)CC1)Cc1ccccc1S2 (configuration not stated) [METITEPINE] | 10 | 350 | 355 | – | – | –
CC1(CCO)Cc2ccccc2C(=O)N1c1ccccc1 (configuration not stated) | -14 | 1000 | 1020 | – | – | Non-toxic
CCCC[C@@H]1Cc2c(Cl)cccc2[C@@H](c2ccccc2)N1 (relative stereo) | 16 | 1400 | 1410 | – | – | –
CCCC[C@H]1Cc2ccc(Cl)cc2[C@@H](c2ccccc2)N1 (relative stereo) | 12 | 7800 | 7760 | – | – | –
CCCC[C@H]1Cc2c(Cl)cccc2[C@@H](c2ccccc2)N1 (relative stereo) | 21 | 130 | 129 | – | Active | –
CCCCCCCCCC(=O)N(CCN(C)C)C1CCCCC12Cc1ccccc1C(=O)N2 (configuration not stated) | -22 | 4800 | 4790 | – | – | –
CC1(CCOC(=O)Cc2ccccc2)Cc2ccccc2CN1C(=O)Cc1ccccc1 (configuration not stated) | -51 | 7500 | 7590 | – | – | Toxic
CCCCCCCCCC(=O)N(CCN(C)C)CC1(C)Cc2ccccc2C(=O)N1 (configuration not stated) | -20 | 1500 | 1510 | – | – | Non-toxic
CC1(COC(=O)c2ccco2)Cc2ccccc2CN1C(=O)c1ccco1 (configuration not stated) | -18 | 7400 | 7410 | – | – | Non-toxic
CCCC[C@H]1Cc2ccc(F)cc2[C@@H](c2ccccc2)N1 (relative stereo) | 15 | 1800 | 1780 | – | – | –
CCCCCC[C@H]1Cc2c(Cl)cccc2[C@@H](c2ccccc2)N1 (relative stereo) | 21 | 2300 | 2290 | – | – | –
